Reference: PubChem BioAssay AID1794803 (Yongcheng Song lab at Baylor College of Medicine, 2022)
Active and inactive are the calls of the source.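 Rule for the calls: active = EC50 under 50 µM in a live-cell viability test; inactive = the rest.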

Test system: NB4 APL cells, proliferation, XTT absorbance
Experiment: NB4 APL cell antiproliferative activity – XTT viability, AHD inhibitor project, dose response (AID 1794803)

SMILES	EC50
O=C(NCC1CCNCC1)c1cc2cc(-c3cn[nH]c3)ccc2[nH]1	> 51 µM (inactive)
NC(=O)c1ccc(-c2ccc3cc(C(=O)NCC4CCNCC4)sc3c2)cc1	> 51 µM (inactive)
O=C(NCC1CCNCC1)c1cc2cc(-c3ccc(N4CCCCC4)cc3)ccc2s1	9.4 µM
O=C(NCC1CCNCC1)c1cc2ccc(-c3ccc(N4CCCCC4)cc3)cc2s1	5.3 µM
O=C(NCC1CCNCC1)c1c[nH]c2cc(-c3ccc(N4CCCC4)cc3)ccc12	50 µM
O=C(NCC1CCNCC1)c1c[nH]c2cc(-c3ccc(N4CCCCC4)cc3)ccc12	32 µM
O=C(NCC1CCNCC1)c1cc2ccc(-c3ccc(N4CCCC4)cc3)cc2s1	10 µM
O=C(NCC1CCNCC1)c1coc2cc(-c3ccc(N4CCCCC4)cc3)ccc12	11 µM
NCc1ccc(-c2ccc3cc(C(=O)NCC4CCNCC4)oc3c2)cc1	> 51 µM (inactive)
O=C(NCC1CCNCC1)c1cc2cc(-c3ccc(N4CCCCC4)cc3)ccc2[nH]1	> 51 µM (inactive)
